Measurements taken from patent US8648208B2, “Activating agent for peroxisome proliferator activated receptor” (Nippon Chemiphar Co. Ltd., priority 2008, dated 2014).
Where two headings read alike, the source gives them in different places.

How the values were obtained:
Format in all cases: cell-based
[1] = biological target: T1, hPPARδ (LBD) (Homo sapiens, UniProt Q03181); assay: PPAR activating effect, GAL4-hPPARδ LBD luciferase reporter transfection in CV-1 cells; design: activation: dose or concentration left out as unconfirmed; details: for activation / activation at 0.1 µM: CV-1, 40 h, read-out: PPAR activity δ (relative value to control compound); for EC50: Table 25, method of Example 29, read-out: PPAR activity (EC50) δ; for selectivity of PPAR δ-activating effect: compared with GW-501516, from EC50 α, γ, δ of Table 25
T1 construct: A receptor expression plasmid (pSG5-GAL4-hPPARα or γ or δ (LBD)); GAL4 (fusion partner); expressed in transfected cells; host or cells: CV-1 cells (ATCC)
T1 sequence (Q03181 211-439 limits assumed): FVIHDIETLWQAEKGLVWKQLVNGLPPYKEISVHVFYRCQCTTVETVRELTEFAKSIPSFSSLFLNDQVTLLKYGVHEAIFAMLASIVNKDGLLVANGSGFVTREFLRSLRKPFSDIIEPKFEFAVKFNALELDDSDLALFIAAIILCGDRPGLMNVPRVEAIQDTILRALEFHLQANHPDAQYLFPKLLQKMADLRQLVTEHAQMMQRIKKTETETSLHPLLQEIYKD

[2] = biological target: T2, hPPARγ (LBD) (Homo sapiens, UniProt P37231); assay: PPAR activating effect, GAL4-hPPARγ LBD luciferase reporter transfection in CV-1 cells; details: for EC50: Table 25, method of Example 29, read-out: PPAR activity (EC50) γ
T2 construct: A receptor expression plasmid (pSG5-GAL4-hPPARα or γ or δ (LBD)); GAL4 (fusion partner); expressed in transfected cells; host or cells: CV-1 cells (ATCC)
T2 sequence (P37231 238-503 limits assumed): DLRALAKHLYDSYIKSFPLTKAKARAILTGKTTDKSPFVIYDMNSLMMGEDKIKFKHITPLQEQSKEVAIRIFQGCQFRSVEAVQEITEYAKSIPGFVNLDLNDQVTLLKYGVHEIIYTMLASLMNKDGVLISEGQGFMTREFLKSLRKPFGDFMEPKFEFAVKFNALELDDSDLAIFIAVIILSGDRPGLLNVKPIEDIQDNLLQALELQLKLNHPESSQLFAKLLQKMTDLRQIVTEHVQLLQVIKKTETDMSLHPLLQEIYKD

[3] = biological target: T3, hPPARα (LBD) (Homo sapiens, UniProt Q07869); assay: PPAR activating effect, GAL4-hPPARα LBD luciferase reporter transfection in CV-1 cells; details: for PPAR activity α (relative value to control compound): 100% = GW-590735 10^-6 M; for EC50: Table 25, method of Example 29, read-out: PPAR activity (EC50) α
T3 construct: A receptor expression plasmid (pSG5-GAL4-hPPARα or γ or δ (LBD)); GAL4 (fusion partner); expressed in transfected cells; host or cells: CV-1 cells (ATCC)
T3 sequence (Q07869 239-466 limits assumed): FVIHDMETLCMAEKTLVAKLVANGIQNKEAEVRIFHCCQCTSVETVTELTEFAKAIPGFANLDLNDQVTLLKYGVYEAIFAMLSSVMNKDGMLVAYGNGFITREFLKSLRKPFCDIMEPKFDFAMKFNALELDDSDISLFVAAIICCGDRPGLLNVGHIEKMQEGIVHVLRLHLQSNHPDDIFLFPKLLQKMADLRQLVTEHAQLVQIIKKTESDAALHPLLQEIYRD

[4] = Table 24, 100% = Rosiglitazone 10^-5 M, CV-1 cells, approx. 40 h
[5] = Table 24, CV-1 cells, approx. 40 h
[6] = Table 26, test compound 10^-7 M, 100% = Rosiglitazone 10^-5 M
[7] = Table 26, test compound 10^-7 M

Row | Compound | activation [1] [%] | PPAR activity γ (relative value to control compound) [2, 4] | PPAR activity α (relative value to control compound) [3, 5] | other results
1 | C=C(CCc1sc2cc(C(F)(F)F)ccc2c1C(C)C)c1ccc(CCC(=O)O)c(C)c1 [Example 14, 3-[4-[1-[2-[3-Isopropyl-6-(trifluoromethyl)-benzothiophen-2-yl]ethyl]vinyl]-2-methylphenyl]propionic acid] | 73 | Inactive | Inactive | –
2 | Cc1cc(C(=O)CCc2sc3cc(C(F)(F)F)ccc3c2C(C)C)ccc1OCC(=O)O [Example 15, 4-[3-[3-Isopropyl-6-(trifluoromethyl)benzothiophen-2-yl]-propionyl]-2-methylphenoxyacetic acid] | 77.4 | Inactive | Inactive | –
3 | CCCc1c(CCC(=NO)c2cc(C)c(OCC(=O)O)cc2O)sc2cc(C(F)(F)F)ccc12 [Example 23, 5-Hydroxy-4-[1-hydroxyimino-3-[3-propyl-6-(trifluoromethyl)benzothiophen-2-yl]propyl]-2-methyl-phenoxyacetic acid] | – | – | – | activation at 0.1 µM [1]: 5.1%; PPAR activity γ (relative value to control compound) [2, 6]: Inactive; PPAR activity α (relative value to control compound) [3, 7]: Inactive
4 | CCCc1c(CCc2noc3cc(CCC(=O)O)c(C)cc23)sc2cc(C(F)(F)F)ccc12 [Example 26, 3-[5-Methyl-3-[2-[3-propyl-6-(trifluoromethyl)benzothiophen-2-yl]ethyl]benzisoxazol-6-yl]propionic acid] | – | – | – | activation at 0.1 µM [1]: 88.8%; PPAR activity γ (relative value to control compound) [2, 6]: Inactive; PPAR activity α (relative value to control compound) [3, 7]: Inactive
5 | Cc1cc(C(=O)CCc2sc3ccc(C(F)(F)F)cc3c2C)ccc1OC(C)(C)C(=O)O [Example 4, 2-Methyl-2-[2-methyl-4-[3-[3-methyl-5-(trifluoromethyl)-benzothiophen-2-yl]propionyl]phenoxy]propionic acid] | 19.2 | 9.0% | – | –
6 | Cc1cc(C(CCc2sc3cc(C(F)(F)F)ccc3c2C(C)C)=NO)ccc1OCC(=O)O [Example 16, 4-[1-Hydroxyimino-3-[3-isopropyl-6-(trifluoromethyl)-benzothiophen-2-yl]propyl]-2-methyl-phenoxyacetic acid] | 51.7 | Inactive | Inactive | –
7 | Cc1cc(C(=O)CCc2sc3ccc(C(F)(F)F)cc3c2C)ccc1OCC(=O)O [Example 3, 2-Methyl-4-[3-[3-methyl-5-(trifluoromethyl)-benzothiophen-2-yl]propionyl]phenoxyacetic acid] | 4.4 | Inactive | Inactive | –
8 | CCCc1c(CCC(=O)c2ccc(CCC(=O)O)c(C)c2)sc2cc(C(F)(F)F)ccc12 [Example 9, 3-[2-Methyl-4-[3-[3-propyl-6-(trifluoromethyl)benzothiophen-2-yl]propionyl]phenyl]propionic acid] | 83.5 | 1.3% | Inactive | –
9 | Cc1cc(C(=O)CCc2sc3cc(C(F)(F)F)ccc3c2CC(C)C)ccc1CCC(=O)O [Example 11, 3-[2-Methyl-4-[3-[3-isobutyl-6-(trifluoromethyl)benzothiophen-2-yl]propionyl]phenyl]propionic acid] | 60.9 | Inactive | Inactive | –
10 | Cc1cc(C(=O)CCc2sc3cc(C(F)(F)F)ccc3c2C)ccc1OCC(=O)O [Example 5, 2-Methyl-4-[3-[3-methyl-6-(trifluoromethyl)-benzothiophen-2-yl]propionyl]phenoxyacetic acid] | 23 | Inactive | Inactive | –
11 | Cc1cc2c(CCc3sc4cc(C(F)(F)F)ccc4c3C(C)C)noc2cc1CCC(=O)O [Example 21, 3-[3-[2-[3-Isopropyl-6-(trifluoromethyl)benzothiophen-2-yl]-ethyl]-5-methylbenzisoxazol-6-yl]propionic acid] | 94.2 | Inactive | Inactive | EC50 ([1]; CV-1 cells): 0.0013 µM; selectivity of PPAR δ-activating effect [1]: superior to that of the GW-501516; EC50 ([2]; CV-1 cells): > 10 µM; EC50 ([3]; CV-1 cells): > 10 µM
12 | Cc1cc(C(=O)CCc2sc3cc(C(F)(F)F)ccc3c2C)ccc1OC(C)(C)C(=O)O [Example 6] | – | – | Inactive | PPAR activity δ (relative value to control compound) ([1]; Table 24, 100% = GW-501516 10^-7 M, CV-1 cells, approx. 40 h): 40.8%; PPAR activity γ (relative value to control compound) [2]: Inactive
13 | Cc1cc(C(=O)CCc2sc3cc(C(F)(F)F)ccc3c2C(C)C)ccc1CCC(=O)O [Example 12, 3-[2-methyl-4-[3-[3-isopropyl-6-(trifluoromethyl)benzothiophen-2-yl]propionyl]phenyl]propionic acid] | 87.3 | Inactive | Inactive | –
14 | 2-[3-[2-[3-Isopropyl-6-(trifluoromethyl)benzothiophen-2-yl]ethyl]benzisoxazol-6-yloxy]propionic acid [Example 27] | – | – | – | PPAR activity γ (relative value to control compound) [2, 6]: Inactive; PPAR activity α (relative value to control compound) [3, 7]: Inactive
15 | Cc1cc2c(CCc3sc4cc(C(F)(F)F)ccc4c3C(C)C)noc2cc1N(C)CC(=O)O [Example 20, N-[3-[2-[3-Isopropyl-6-(trifluoromethyl)benzothiophen-2-yl]ethyl]-5-methylbenzisoxazol-6-yl]-N-methylglycine] | 88 | Inactive | – | –
16 | CON=C(CCc1sc2cc(C(F)(F)F)ccc2c1C(C)C)c1ccc(OCC(=O)O)c(C)c1 [Example 17, 4-[3-[3-Isopropyl-6-(trifluoromethyl)benzothiophen-2-yl]-1-methoxyiminopropyl]-2-methylphenoxyacetic acid] | 45.9 | Inactive | Inactive | –
17 | Cc1cc2c(CCc3sc4cc(C(F)(F)F)ccc4c3C(C)C)noc2cc1OCC(=O)O [Example 19, [3-[2-[3-Isopropyl-6-(trifluoromethyl)benzothiophen-2-yl]-ethyl]-5-methyl-benzisoxazol-6-yloxy]acetic acid] | 91.7 | Inactive | Inactive | EC50 ([1]; CV-1 cells): 0.0048 µM; selectivity of PPAR δ-activating effect [1]: superior to that of the GW-501516; EC50 ([2]; CV-1 cells): > 10 µM; EC50 ([3]; CV-1 cells): > 10 µM
18 | Cc1cc(C(=O)CCc2sc3cc(C(F)(F)F)ccc3c2C)ccc1CCC(=O)O [Example 7, 3-[4-[3-[3-Methyl-6-(trifluoromethyl)-benzothiophen-2-yl]propionyl]-2-methylphenyl]propionic acid] | 51.4 | Inactive | Inactive | –
19 | CCCc1c(CCC(=O)c2cc(C)c(OCC(=O)O)cc2O)sc2cc(C(F)(F)F)ccc12 [Example 22] | – | – | – | PPAR activity γ (relative value to control compound) [2]: Inactive; PPAR activity α (relative value to control compound) [3, 7]: Inactive
20 | Cc1cc(C(CCc2sc3cc(C(F)(F)F)ccc3c2C(C)C)=NO)ccc1CCC(=O)O [Example 13, 3-[4-[1-Hydroxyimino-3-[3-isopropyl-6-(trifluoromethyl)-benzothiophen-2-yl]propyl]-2-methylphenyl]propionic acid] | 90.4 | Inactive | Inactive | –
21 | CCc1c(CCC(=O)c2ccc(CCC(=O)O)c(C)c2)sc2cc(C(F)(F)F)ccc12 [Example 8, 3-[4-[3-[3-Ethyl-6-(trifluoromethyl)benzothiophen-2-yl]propionyl]-2-methylphenyl]propionic acid] | 81 | Inactive | Inactive | –
